The source of these data is US20060099284A1, “Composition containing an extract of fructus psoraleae for inhibiting anxiety and depression, improving memory and treating dementia” (priority 2004, published 2006).

In the assay the test system is male ICR mouse. Put plainly: Passive avoidance test: dementia treatment test (scopolamine). The note with it: scopolamine 1 mg/kg intraperitoneally after training; test after 24 hours; FIG. 5B. It is filed as in vivo. How it is done:
A passive avoidance test was carried out using a Gemini avoidance system (San Diego Instruments, USA) one hour after extracts (fraction T, fraction C, fraction CM, or fraction M) of Fructus Psoraleae were orally administered to a male ICR mouse (20 g) in a dose of 10 mg/kg. The test was modified on the basis of a method by Kumar, et al. and carried out as follows (Kumar, V., Singh, P. N., Muruganandan, A. V., Bhattacharya, Effect of Indian Hypericum perforatum Linn on animal models of cognitive dysfunction; J Ethnopharmacology 72, p 119-128, 2000).
On the first day of a training test, a mouse was put into the bright box to be acclimated for 300 seconds, prior to moving the mouse into a dark box by automatically opening a door. If the mouse moved into a dark box, it was electrically stimulated one second at 0.3 mA. As soon as a training session was finished, scopolamine was intraperitoneally administered in a dose of 1 mg/kg. At the test after 24 hours, the mouse was acclimated in the bright box for 300 seconds, prior to moving the mouse into the dark box by opening a door. The time to move into the dark box was measured at this time. […]

As for `CN1[C@@H]2C[C@@H](OC(=O)[C@H](CO)c3ccccc3)C[C@H]1[C@@H]1O[C@@H]12` [scopolamine], the “memory failure compared with a control group” value came out at 66.6%.
